Results from patent US20160279088A1, “COMPOSITION FOR PROMOTING DIFFERENTIATION OR PROLIFERATION OF ERYTHROCYTIC CELLS, CONTAINING MONOACETYL DIACYLGLYCEROL COMPOUND AS ACTIVE INGREDIENT” (ENZYCHEM LIFESCIENCES CORPORATION, priority 2013, published 2016).
“Also recorded” adds a separate entry of the source.

Tests used:
[1] = GLP toxicity test; cited from earlier work
erythrocytes = assay: Concentration of erythrocytes in blood of phenyl hydrazine anemia-induced mice; assay type: in vivo, mouse; conditions: EC-18 orally 5 mg/ml
Procedure: To observe changes in the level of erythrocytes in mouse blood, anemia-induced mice were prepared by administering phenyl hydrazine (PHZ) intraperitoneally into mice weighing […] at a dose of […]. After administering EC-18 orally to the mice at a dose of 5 mg/ml, blood was collected after 3 days and 13 days. For comparison, a normal group that was not treated with phenyl hydrazine and a control group that was treated with olive oil instead of EC-18 were prepared and blood was collected from the groups after 3 days and 13 days. Collected blood was transferred to EDTA bottle 0.5 ml (Minicollect tube, Greiner bio-one, Austria) and the concentration of erythrocytes (number per pl, unit: 10^6) was measured using a flow cytometer, Auto Hematology Analyzer BC-5300 (Mindray, Shenzhen, China). FIG. 5 is a graph showing the concentration of erythrocytes 3 days after phenyl hydrazine treatment in the normal group, the control group (treated with PHZ and olive oil) and the test group (treated with PHZ and EC-18). FIG. 6 is a graph showing the concentration of erythrocytes 13 days after phenyl hydrazine treatment in the normal group, the control group and the test group.

[2] = test system: cells other than erythroid cells in bone marrow cells; assay: FACS analysis of other bone marrow cells (B, T, DC, macrophages, neutrophils, NK) of mice treated with EC-18; assay type: in vivo, C57BL mouse; conditions: C57BL mice, EC-18 orally 50 mg/kg for seven days, CD19, CD4, CD8, CD11c, CD11b/F4, CD11b/ly, CD122 antibodies
Procedure: (§1) Bone marrow cells were isolated from C57BL mice in the following manner. A total of eight 9-week-old C57 BL mice weighting […] were used in the experiment. Three mice were used as control (C1-3). EC-18 was administered orally to five mice at a dose of 50 mg/kg for seven days. Mice were sacrificed by […] and sterilized with 70% alcohol. The tissue of tibia and femur was cut, skin was removed and muscles were taken out. After removing tibia by breaking it in the opposite direction, the sample was washed with 70% alcohol and placed in PBS. After removing the cartilage between femur and tibia, muscles were removed from femur. Femur was separated from pelvis, washed in 70% alcohol and placed in PBS. In order to isolate bone marrow cells from femur, the pelvic end was cut and after filling the 1 ml syringe with culture media, the needle was injected into the cartilage in the knee side to allow bone marrow cells to be pushed out. The culture media containing bone marrow cells was transferred to a tube and the tube was centrifuged. […]
Bone marrow cells isolated from C57BL mice treated with EC-18 (EC1-EC5, EC-18) and untreated mice (C1-C3, con) were compared. […] Cells were incubated with TER-119, CD19, CD4, CD8, CD11c, CD11b/ly, CD122 antibodies (BD Biosciences-Pharmingen, San Jose, CA, USA) for 1 hour and analyzed using FACscan flow cytometer (Becton Dickinson, San Jose, Calif.).

[3] = sepsis animal model, cecal-ligation-puncture; cited from earlier work
erythroid cells = assay: FACS analysis of erythroid cells (TER-119) in bone marrow cells of mice treated with EC-18; assay type: in vivo, C57BL mouse; conditions: C57BL mice, EC-18 orally 50 mg/kg for seven days; untreated mice 31.2%
Procedure: as §1, with “out.” for “out. The culture media containing bone marrow cells was transferred to a tube and the tube was centrifuged.”
Differentiation and proliferation of erythroid cells in bone marrow cells collected from C57BL mice treated with EC-18 were analyzed by using TER-119 antibody (BD Biosciences-Pharmingen, San Jose, Calif., USA), which is a marker of erythroid cells, and FACS. […] Bone marrow cells isolated by the method of Example 2 were stained by incubating with anti-TER119-FITC antibody and analyzed by using FACscan flow cytometer (Becton Dickinson, San Jose, Calif.).

## CCCCC/C=C\C/C=C\CCCCCCCC(=O)OC(COC(C)=O)COC(=O)CCCCCCCCCCCCCCC (stereo not drawn) [EC-18, 1-palmitoyl-2-linoleoyl-3-acetylglycerol]
[1]
  toxicity: no toxicity
erythrocytes; vs control (PHZ and olive oil), 3 days
  concentration of erythrocytes in blood 3 days after PHZ treatment: mitigates the reduction of erythrocytes
erythrocytes; vs normal group, 13 days
  concentration of erythrocytes in blood 13 days after PHZ treatment: slightly higher than the normal level
[2]
  ratio of cells other than erythroid cells in bone marrow cells: maintained same; also recorded: not changed
[3]
  survivability ratio of animals: increases survivability ratio
Erythroid cells
  percentage of erythroid cells in bone marrow cells (TER-119, FACS): 41.7%
